Source: patent US12415786B2, “Substituted 2-heteroarylaminobenzenes and the salts thereof and their use as herbicidal agents” (Bayer Aktiengesellschaft, priority 2019, dated 2025)

Key:
Format in all cases: in vivo
Echinochloa crus-galli [1] = assay: Herbicidal post-emergence action (greenhouse pots), ECHCG; conditions: 1280 g/ha, rated after about 3 weeks, 100% = plants have died, 0% = like untreated control plants
Excerpt: (§1) In the examples and tables below, the following abbreviations are used: • Undesired Plants/Weeds: • ABUTH: Abutilon theophrasti • AGSTE: Agrostis tenuis • AMARE Amaranthus retroflexus • ECHCG: Echinochloa crus-galli • LOLRI: Lolium rigidum • MATIN: Matricaria inodora • POAAN: Poa annua • SETVI: Setaria viridis • STEME: Stellaria media A. Herbicidal Early Post-Emergence Action Seeds of mono- and dicotyledonous weed plants were placed in plastic pots in sandy loam soil (doubly sown with in each case one species of mono- or dicotyledonous weed plants per pot), covered with soil and cultivated in a greenhouse under controlled growth conditions. 2 to 3 weeks after sowing, the test plants were treated at the one-leaf stage. The compounds of the invention, formulated in the form of wettable powders (WP) or as emulsion concentrates (EC), were applied onto the green parts of the plants as aqueous suspension or emulsion with addition of 0.5% additive at a water application rate of 600 liters per hectare (converted). After the test plants had been kept in the greenhouse under optimum growth conditions for about 3 weeks, the activity of the preparations was rated visually in comparison to untreated controls. For example, 100% activity=the plants have died, 0% activity=like untreated control plants. Tables B1-B8 below show the effects of selected compounds of the general formula (I) according to Table 1 above on various harmful plants and an application rate corresponding to 1280 g/ha, which were obtained by the experimental procedure mentioned above.

Amaranthus retroflexus [2] = assay: Herbicidal pre-emergence action (greenhouse pots), AMARE; conditions: 1280 g/ha, visual scoring after about 3 weeks vs untreated controls
Excerpt: (§2) In the examples and tables below, the following abbreviations are used: • Undesired Plants/Weeds: • ABUTH: Abutilon theophrasti • AGSTE: Agrostis tenuis • AMARE Amaranthus retroflexus • ECHCG: Echinochloa crus-galli • LOLRI: Lolium rigidum • MATIN: Matricaria inodora • POAAN: Poa annua • SETVI: Setaria viridis • STEME: Stellaria media A. Herbicidal Early Post-Emergence Action Seeds of mono- and dicotyledonous weed plants were placed in plastic pots in sandy loam soil (doubly sown with one species each of mono- or dicotyledonous weed plants per pot) and covered with soil. The compounds of the invention, formulated in the form of wettable powders (WP) or as emulsion concentrates (EC), were then applied onto the surface of the covering soil as aqueous suspension or emulsion with addition of 0.5% additive at a water application rate of 600 liters per hectare (converted). After the treatment, the pots were placed in a greenhouse and kept under good growth conditions for the test plants. After about 3 weeks, the effect of the preparations was scored visually in comparison with untreated controls as percentages. For example, 100% activity=the plants have died, 0% activity=like untreated control plants. Tables C1-C8 below show the effects of selected compounds of the general formula (I) according to Table 1 above on various harmful plants and an application rate corresponding to 1280 g/ha, which were obtained by the experimental procedure mentioned above.

Stellaria media [3] = assay: Herbicidal pre-emergence action (greenhouse pots), STEME; conditions: 1280 g/ha, visual scoring after about 3 weeks vs untreated controls
Excerpt: as §2

Amaranthus retroflexus [4] = assay: Herbicidal post-emergence action (greenhouse pots), AMARE; conditions: 1280 g/ha, visual rating about 3 weeks after treatment vs untreated controls
Excerpt: as §1

Echinochloa crus-galli [5] = assay: Herbicidal pre-emergence action (greenhouse pots), ECHCG; conditions: 1280 g/ha, visual scoring after about 3 weeks vs untreated controls
Excerpt: as §2

Poa annua [6] = assay: Herbicidal post-emergence action (greenhouse pots), POAAN; conditions: 1280 g/ha, visual rating about 3 weeks after treatment vs untreated controls
Excerpt: as §1

Setaria viridis [7] = assay: Herbicidal post-emergence action (greenhouse pots), SETVI; conditions: 1280 g/ha, rated after about 3 weeks, 100% = plants have died, 0% = like untreated control plants
Excerpt: as §1

Poa annua [8] = assay: Herbicidal early post-emergence action (96-well microtiter plates), POAAN; conditions: 1900 g/ha, scored 9 to 12 days after treatment, 100% = plants have died, 0% = like untreated control plants
Excerpt: (§3) In the examples and tables below, the following abbreviations are used: • Undesired Plants/Weeds: • ABUTH: Abutilon theophrasti • AGSTE: Agrostis tenuis • AMARE Amaranthus retroflexus • ECHCG: Echinochloa crus-galli • LOLRI: Lolium rigidum • MATIN: Matricaria inodora • POAAN: Poa annua • SETVI: Setaria viridis • STEME: Stellaria media A. Herbicidal Early Post-Emergence Action Seeds of monocotyledonous and dicotyledonous weed plants were placed in 96-well microtiter plates in quartz sand and grown in a climatized chamber under controlled growth conditions. 5 to 7 days after sowing, the test plants were treated at the cotyledon stage. The compounds according to the invention, formulated in the form of emulsion concentrates (EC), were applied with a water application rate of the equivalent of 2200 liters per hectare. After the test plants had been left to stand in the climatized chamber for 9 to 12 days under optimum growth conditions, the effect of the preparations was scored visually in comparison to untreated controls. Here, for example, 100% activity=the plants have died, 0% activity=like untreated control plants. Tables A1 to A2 below show the effects of selected compounds of the general formula (I) according to Table 1 above on various harmful plants and an application rate corresponding to 1900 g/ha, which were obtained by the experimental procedure mentioned above.

Poa annua [9] = assay: Herbicidal pre-emergence action (greenhouse pots), POAAN; conditions: 1280 g/ha, visual scoring after about 3 weeks vs untreated controls
Excerpt: as §2

Agrostis tenuis = assay: Herbicidal early post-emergence action (96-well microtiter plates), AGSTE; conditions: 1900 g/ha, scored 9 to 12 days after treatment, 100% = plants have died, 0% = like untreated control plants
Excerpt: as §3

Setaria viridis [10] = assay: Herbicidal pre-emergence action (greenhouse pots), SETVI; conditions: 1280 g/ha, visual scoring after about 3 weeks vs untreated controls
Excerpt: as §2

Abutilon theophrasti = assay: Herbicidal post-emergence action (greenhouse pots), ABUTH; conditions: 1280 g/ha, visual rating about 3 weeks after treatment vs untreated controls
Excerpt: as §1

Matricaria inodora = assay: Herbicidal pre-emergence action (greenhouse pots), MATIN; conditions: 1280 g/ha, visual scoring after about 3 weeks vs untreated controls
Excerpt: as §2

Stellaria media [11] = assay: Herbicidal post-emergence action (greenhouse pots), STEME; conditions: 1280 g/ha, visual rating about 3 weeks after treatment vs untreated controls
Excerpt: as §1

Structure (SMILES): N#Cc1cccc(Nc2ncc(Cl)cn2)c1Oc1ccc(Cl)cc1 [Example 1-288]
- ECHCG (herbicidal activity, rated visually in comparison to untreated controls) (Echinochloa crus-galli [1]): 100%
- herbicidal activity AMARE (Amaranthus retroflexus [2]): 100%
- herbicidal activity STEME (Stellaria media [3]): 100%
- herbicidal activity AMARE (Amaranthus retroflexus [4]): 100%
- herbicidal activity ECHCG (Echinochloa crus-galli [5]): 90%
- herbicidal activity POAAN (Poa annua [6]): 100%
- SETVI (herbicidal activity, rated visually in comparison to untreated controls) (Setaria viridis [7]): 90%
- POAAN (herbicidal activity, scored visually in comparison to untreated controls) (Poa annua [8]): 80%
- herbicidal activity POAAN (Poa annua [9]): 100%
- AGSTE (herbicidal activity, scored visually in comparison to untreated controls) (Agrostis tenuis): 80%
- herbicidal activity SETVI (Setaria viridis [10]): 100%
- herbicidal activity ABUTH (Abutilon theophrasti): 90%

Structure (SMILES): O=[N+]([O-])c1cccc(Nc2ncc(Cl)cn2)c1Oc1ccc(F)cc1 [Example 1-350]
- herbicidal activity AMARE (Amaranthus retroflexus [2]): 100%
- herbicidal activity MATIN (Matricaria inodora): 100%
- herbicidal activity AMARE (Amaranthus retroflexus [4]): 100%
- herbicidal activity POAAN (Poa annua [6]): 100%
- POAAN (herbicidal activity, scored visually in comparison to untreated controls) (Poa annua [8]): 100%
- herbicidal activity POAAN (Poa annua [9]): 100%
- AGSTE (herbicidal activity, scored visually in comparison to untreated controls) (Agrostis tenuis): 80%

Structure (SMILES): N#Cc1cccc(Nc2ncc(Cl)cn2)c1Oc1ccc(C(F)(F)F)cc1 [Example 1-298]
- herbicidal activity AMARE (Amaranthus retroflexus [2]): 100%
- herbicidal activity STEME (Stellaria media [3]): 100%
- herbicidal activity MATIN (Matricaria inodora): 90%
- herbicidal activity AMARE (Amaranthus retroflexus [4]): 100%
- herbicidal activity POAAN (Poa annua [6]): 90%
- herbicidal activity STEME (Stellaria media [11]): 100%
- SETVI (herbicidal activity, rated visually in comparison to untreated controls) (Setaria viridis [7]): 90%
- POAAN (herbicidal activity, scored visually in comparison to untreated controls) (Poa annua [8]): 80%
- herbicidal activity POAAN (Poa annua [9]): 100%
- AGSTE (herbicidal activity, scored visually in comparison to untreated controls) (Agrostis tenuis): 80%
- herbicidal activity SETVI (Setaria viridis [10]): 100%
- herbicidal activity ABUTH (Abutilon theophrasti): 90%

Structure (SMILES): Fc1ccc(Oc2ccccc2Nc2ncc(Cl)cn2)cc1 [Example 1-337]
- ECHCG (herbicidal activity, rated visually in comparison to untreated controls) (Echinochloa crus-galli [1]): 90%
- herbicidal activity AMARE (Amaranthus retroflexus [2]): 90%
- herbicidal activity AMARE (Amaranthus retroflexus [4]): 90%
- POAAN (herbicidal activity, scored visually in comparison to untreated controls) (Poa annua [8]): 100%
- herbicidal activity POAAN (Poa annua [9]): 100%
- AGSTE (herbicidal activity, scored visually in comparison to untreated controls) (Agrostis tenuis): 100%
- herbicidal activity ABUTH (Abutilon theophrasti): 90%

Structure (SMILES): N#Cc1cccc(Nc2ncc(Cl)cn2)c1Oc1ccc(F)cc1F [Example 1-289]
- ECHCG (herbicidal activity, rated visually in comparison to untreated controls) (Echinochloa crus-galli [1]): 100%
- herbicidal activity AMARE (Amaranthus retroflexus [2]): 100%
- herbicidal activity STEME (Stellaria media [3]): 100%
- herbicidal activity MATIN (Matricaria inodora): 100%
- herbicidal activity AMARE (Amaranthus retroflexus [4]): 100%
- herbicidal activity STEME (Stellaria media [11]): 100%
- SETVI (herbicidal activity, rated visually in comparison to untreated controls) (Setaria viridis [7]): 90%
- POAAN (herbicidal activity, scored visually in comparison to untreated controls) (Poa annua [8]): 80%
- herbicidal activity POAAN (Poa annua [9]): 100%
- AGSTE (herbicidal activity, scored visually in comparison to untreated controls) (Agrostis tenuis): 80%
- herbicidal activity SETVI (Setaria viridis [10]): 100%
- herbicidal activity ABUTH (Abutilon theophrasti): 90%

Structure (SMILES): N#Cc1cccc(Nc2ncccn2)c1Oc1cccc(F)c1 [Example 1-247]
- herbicidal activity AMARE (Amaranthus retroflexus [2]): 100%
- herbicidal activity STEME (Stellaria media [3]): 100%
- herbicidal activity AMARE (Amaranthus retroflexus [4]): 100%
- herbicidal activity ECHCG (Echinochloa crus-galli [5]): 90%
- herbicidal activity POAAN (Poa annua [9]): 100%
- AGSTE (herbicidal activity, scored visually in comparison to untreated controls) (Agrostis tenuis): 80%
- herbicidal activity SETVI (Setaria viridis [10]): 100%
